Results: patent US7799821B2, “Therapeutic compounds” (Allergan, Inc., priority 2004, dated 2010)

How the values were obtained:
hTP = biological target: T1, hTP (Homo sapiens, UniProt P21731); assay: FLIPR calcium signal, hTP; assay type: cell-based
T1 construct: expressed in transfected cells; host or cells: HEK-293(EBNA)
T1 sequence (P21731 1-343): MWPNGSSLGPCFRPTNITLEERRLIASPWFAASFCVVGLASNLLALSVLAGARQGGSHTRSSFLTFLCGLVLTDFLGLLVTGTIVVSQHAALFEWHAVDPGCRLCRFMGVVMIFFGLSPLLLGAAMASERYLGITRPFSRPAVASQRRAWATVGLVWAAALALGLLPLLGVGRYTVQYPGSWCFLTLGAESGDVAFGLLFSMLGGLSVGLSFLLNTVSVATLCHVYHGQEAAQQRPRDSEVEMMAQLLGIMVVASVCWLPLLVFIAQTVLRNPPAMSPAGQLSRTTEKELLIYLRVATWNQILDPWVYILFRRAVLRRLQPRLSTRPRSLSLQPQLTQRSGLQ
Procedure, shortened: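 HEK-293(EBNA) cells stably expressing each human prostanoid receptor (EP2 and EP3A coupled via Gqs5/Gqi5 chimeras) were loaded with Fluo-4 AM, and peak calcium fluorescence was measured on FLIPR at 37° C. Compounds were tested at 10^−5 M or from 10^−11 to 10^−5 M in duplicate, n≥3, with response expressed relative to buffer and standard agonist controls.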

hFP = biological target: T2, hFP (Homo sapiens, UniProt P43088); assay: FLIPR calcium signal, hFP; assay type: cell-based; settings: Table 3, third part
T2 construct: expressed in transfected cells; host or cells: HEK-293(EBNA)
Procedure: HEK-293(EBNA) cells, stably expressing one type or subtype of recombinant human prostaglandin receptors (prostaglandin receptors expressed: hDP/Gqs5; hEP1; hEP2/Gqs5; hEP3A/Gqi5; hEP4/Gqs5; hFP; hIP; hTP), were cultured in 100 mm culture dishes in high-glucose DMEM medium containing 10% fetal bovine serum, 2 mM 1-glutamine, 250 μg/ml geneticin (G418) and 200 μg/ml hygromycin B as selection markers, and 100 units/ml penicillin G, 100 μg/ml streptomycin and 0.25 μg/ml amphotericin B. • (b) Calcium Signal Studies on the FLIPR™
Cells were seeded at a density of 5×10^4 cells per well in Biocoat® Poly-D-lysine-coated black-wall, clear-bottom 96-well plates (Becton-Dickinson) and allowed to attach overnight in an incubator at 37° C. Cells were then washed two times with HBSS-HEPES buffer (Hanks Balanced Salt Solution without bicarbonate and phenol red, 20 mM HEPES, pH 7.4) using a Denley Cellwash plate washer (Labsystems). After 45 minutes of dye-loading in the dark, using the calcium-sensitive dye Fluo-4 AM at a final concentration of 2 μM, plates were washed four times with HBSS-HEPES buffer to remove excess dye leaving 100 μl in each well. Plates were re-equilibrated to 37° C. for a few minutes.
Cells were excited with an Argon laser at 488 nm, and emission was measured through a 510-570 nm bandwidth emission filter (FLIPR™, Molecular Devices, Sunnyvale, Calif.). Drug solution was added in a 50 μl volume to each well to give the desired final concentration. The peak increase in fluorescence intensity was recorded for each well. On each plate, four wells each served as negative (HBSS-HEPES buffer) and positive controls (standard agonists: BW245C (hDP); PGE2 (hEP1; hEP2/Gqs5; hEP3A/Gqi5; hEP4/Gqs5); PGF2α (hFP); carbacyclin (hIP); U-46619 (hTP), depending on receptor). The peak fluorescence change in each drug-containing well was then expressed relative to the controls.
Compounds were tested in a high-throughput (HTS) or concentration-response (CoRe) format. […]

T2 sequence (P43088 whole entry): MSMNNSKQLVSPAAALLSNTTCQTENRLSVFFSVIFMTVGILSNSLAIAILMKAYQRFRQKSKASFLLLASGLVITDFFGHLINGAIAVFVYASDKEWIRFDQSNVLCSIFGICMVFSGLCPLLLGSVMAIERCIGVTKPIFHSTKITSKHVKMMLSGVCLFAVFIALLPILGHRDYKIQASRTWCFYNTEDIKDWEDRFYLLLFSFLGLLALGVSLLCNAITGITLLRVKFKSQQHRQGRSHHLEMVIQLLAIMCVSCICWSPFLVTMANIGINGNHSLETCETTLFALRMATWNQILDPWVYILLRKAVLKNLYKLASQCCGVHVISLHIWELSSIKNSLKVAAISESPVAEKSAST

Structure (SMILES) | EC50 (hTP; read-out: Other Receptors EC50 hTP) [µM] | Ca2+ Signal-EC50 (nM) FP (hFP) | Ca2+ Signal-EC50 (nM) TP (hTP; Table 3, third part)
CC(C)(C)c1ccc(N2C(=O)CC[C@@H]2COCc2ccc(C(=O)O)s2)cc1 | > 10 |  | 
CCCCCC(C)c1ccc([C@@H]2[C@@H](C/C=C\CCCC(=O)O)[C@H](C#N)C[C@H]2C)cc1 (stereo partly drawn) |  | not active | not active
